According to patent US20030176444A1, “Cytokine production inhibitors” (priority 2000, published 2003):

What was measured:
[1] = tested on: methicillin-resistant Staphylococcus aureus (MRSA) O-271 strain ocular infection; assay: Rabbit ocular infection: scoring of corneal and conjunctival findings; assay type: in vivo, Japanese White Rabbits
Experimental: Antiinflammatory Effects on Rabbit Ocular Infection
(§1) The subject substances used for the test include […], 0.3 w/v % and 0.5 w/v % gatifloxacin eye drops. The control substances used include a 0.3 w/v % ofloxacin eye drop, a 0.5 w/v % levofloxacin eye drop and a physiological saline.
(§2) Japanese White Rabbits (male, 1.74 to 2.30 kg in weight) were generally anesthetized, and then 30 μL of 3.1×10^5 CFU/mL methicillin-resistant Staphylococcus aureus (MRSA) O-271 strain suspension was injected into a corneal stroma of each rabbit via a 27 gauge injection needle attached to a 100 μL microsyringe.
(§3) Five hours and 24 hours after the bacterial inoculation, 50 μL of each test substance was instillated into the rabbit eye using a micropipet. In the observation carried out 8, 16, 24, 32, and 48 hours after the bacterial inoculation, symptoms such as opacity of cornea, and redness and edema of conjunctiva were observed and scored based on the criteria as shown in Table 1. Each rabbit was sacrificed 52 hours after the bacterial inoculation, and then the eyeball was enucleated and cornea and conjunctiva were cut out. These tissue sections were morcellated in 2 mL of a physiological saline, diluted, and plated onto a Mueller-Hinton agar medium, and then the viable bacterial number was determined by counting the colonies formed after 48 hours.

[2] = tested on: TNF-alpha production by lipopolysaccharide-stimulated macrophages; assay: Effect on TNF-alpha production by lipopolysaccharide-stimulated macrophages (ELISA); assay type: cell-based, C3H/HeNCrj mice; conditions: five-hour culture
Experimental: Effect on TNF-Alpha Production by Lipopolysaccharide-Stimulated Macrophages Gatifloxacin was added to a culture medium at a concentration of 1, 10, or 100 μg/mL. One mL of 3% thioglycolate culture medium (Sigma) was intraperitoneally administered to C3H/HeNCrj mice (male, 11 weeks old) to induce macrophages. Six days after the administration, the animals were sacrificed, and then 10 mL of sterile RPMI 1640 (GIBCO BRL; 10% FBS-RPMI) containing 100 U/mL penicillin-100 μg/mL streptomycin (GIBCO BRL) and 10 v/v % fetal bovine serum (FBS) was intraperitoneally injected. After gentle massage of the abdomen, the 10% FBS-RPMI was collected from the abdomen cavity. After the collected 10% FBS-RPMI was centrifuged, the supernatant was removed and the peritoneal exudate cells including macrophages were harvested. The harvested peritoneal exudate cells were suspended in 10% FBS-RPMI at a concentration of […], and the suspension was plated in each well of a 24-well plate. After incubation for 1.5 hours, non-adherent cells were washed out with 10% FBS-RPMI, and macrophages adhering to the plate were obtained. […] Each content of TNF-alpha in the culture supernatant was determined by using an enzyme immunoassay (ELISA).

[3] = tested on: methicillin-resistant Staphylococcus aureus (MRSA) O-271 strain; assay: Rabbit ocular infection: viable bacterial number in corneal and conjunctival tissues; assay type: in vivo, Japanese White Rabbits; conditions: for Viable Bacterial Number (CFU/Cornea): 52 hours after inoculation, average
Experimental: as §1, §2, §3

| SMILES | symptoms of the corneal infection (total cornea score) ([1]; 0.1, 0.3 and 0.5 w/v % eye drops, 50 μL at 5 and 24 h after inoculation, observed until 48 hours) | conjunctival findings (total conjunctiva score) ([1]; 0.3 w/v % and 0.5 w/v % eye drops, after 32 hours) | conjunctival findings (total conjunctiva score) ([1]; 0.5 w/v % eye drop, after 48 hours) | symptoms of the corneal infection (total cornea score) ([1]; 0.5 w/v % eye drop, until 48 hours after inoculation) | symptoms of the corneal infection (total cornea score), comparison with ofloxacin ([1]; eye drop concentration of 0.3 w/v % or more, vs 0.3 w/v % ofloxacin eye drop) | concentration significantly suppressing the increase in TNF-alpha content ([2]; in combination with LPS 1 μg/mL, Williams' test) | inhibition of LPS-stimulated TNF-alpha production (TNF-alpha content of culture supernatant) ([2]; mouse peritoneal macrophages, LPS 1 μg/mL, gatifloxacin 1, 10 or 100 μg/mL) | Viable Bacterial Number (CFU/Cornea) ([3]; 0.1% eye drop) | viable bacterial number in the corneal tissue (in words) ([3]; 0.1, 0.3 and 0.5 w/v % eye drop groups) | Viable Bacterial Number (CFU/Cornea) ([3]; 0.3% eye drop) | Viable Bacterial Number (CFU/Cornea) ([3]; 0.5% eye drop) | viable bacterial number in the corneal tissue (in words) ([3]; 0.5 w/v % eye drop) |
| --- | --- | --- | --- | --- | --- | --- | --- | --- | --- | --- | --- | --- |
| COc1c(N2CCNC(C)C2)c(F)cc2c(=O)c(C(=O)O)cn(C3CC3)c12 (racemic) [Gatifloxacin, (±)-1-cyclopropyl-6-fluoro-1,4-dihydro-8-methoxy-7-(3-methyl-1-piperazinyl-4-oxo-3-quinolinecarboxylic acid] | dose-dependently inhibited | stronger inhibitory effect than the ofloxacin or the levofloxacin eye drop group | significantly stronger inhibitory effect than the 0.5 w/v % levofloxacin eye drop group | strong inhibitory effect | stronger inhibitory effect than the 0.3 w/v % ofloxacin eye drop group | ≥ 1 µg/mL | dose-dependently inhibited | 1.3 × 10^4 CFU/Cornea | decreased dose-dependently | 1.1 × 10^3 CFU/Cornea | 3.9 × 10^2 CFU/Cornea | greatly decreased |
| C[C@H]1COc2c(N3CCN(C)CC3)c(F)cc3c(=O)c(C(=O)O)cn1c23 [Levofloxacin] | – | – | – | – | – | – | – | – | – | – | 4.4 × 10^2 CFU/Cornea | – |
| CC1COc2c(N3CCN(C)CC3)c(F)cc3c(=O)c(C(=O)O)cn1c23 (centres unmarked) [Ofloxacin] | – | – | – | – | – | – | – | – | – | 2.0 × 10^5 CFU/Cornea | – | – |
